According to patent US7396958B2, “Sulphonamide derivatives, their preparation and their therapeutic application” (Sanofi Aventis, priority 2004, dated 2008):
Like-named read-outs stand apart in the source and are kept apart here.

Key:
human orexin 1 receptors = molecular target: T1, human orexin 1 receptors (Homo sapiens, UniProt O43613); test: in vitro binding: displacement of radio-iodinated orexin A on CHO cell membrane preparation; conditions: membrane preparation of CHO cells expressing human orexin 1 receptors, read-out: IC50 OX 1
T1 construct: expressed in transfected cells; host or cells: CHO cells (membrane preparation)
T1 sequence (O43613 1-425): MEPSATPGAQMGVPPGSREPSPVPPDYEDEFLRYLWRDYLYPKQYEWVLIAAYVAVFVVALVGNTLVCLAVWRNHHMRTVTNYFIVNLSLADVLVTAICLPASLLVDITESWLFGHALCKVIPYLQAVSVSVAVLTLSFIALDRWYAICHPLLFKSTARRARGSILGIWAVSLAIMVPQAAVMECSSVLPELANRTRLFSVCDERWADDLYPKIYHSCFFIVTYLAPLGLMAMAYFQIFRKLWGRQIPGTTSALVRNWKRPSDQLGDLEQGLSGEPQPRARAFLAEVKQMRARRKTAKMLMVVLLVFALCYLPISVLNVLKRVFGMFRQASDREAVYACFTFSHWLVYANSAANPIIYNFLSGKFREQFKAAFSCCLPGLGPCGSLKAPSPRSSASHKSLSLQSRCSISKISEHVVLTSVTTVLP
Protocol: (§1) They were in particular tested as regards their effects. […] This method consists in studying the displacement of radio-iodinated orexin A bound to human orexin 2 receptors expressed in CHO cells. The test is performed on membranes in a Hepes 50 mM, MgCl2 1 mM, CaCl2 25 mM, NaN3 0.025%, bovine serum albumin (BSA) 1% incubation buffer and 100 pM of ligand, for 30 minutes at 25° C. The reaction is quenched by filtration and washing on a Whatman GF/C filter. The non-specific binding is measured in the presence of 10^−6M of human orexin B. The IC50 values (concentration that inhibits 50% of the binding of the radio-iodinated orexin A to its receptors) are low, less than 300 nM, in particular less than 100 nM and more particularly less than 30 nM. The affinity of the compounds according to the invention for the orexin 1 receptors was also studied in a test of in vitro binding according to the same technique using radio-iodinated orexin A as ligand in a membrane preparation of CHO cells expressing the human orexin 1 receptors. The compounds according to the invention show little or no affinity for the orexin 1 receptors.

orexin 2 receptors [1] = molecular target: T2, orexin 2 receptors (Homo sapiens, UniProt O43614); test: measurement of intracellular calcium (FLIPR), antagonist test against orexin B; type: cell-based; conditions: 30 minutes preincubation before addition of 0.25 nM orexin B, Fluo-4 AM, read-out: Measurement of [Ca^2+]i IC50 OX 2 - FLIPR
T2 sequence (O43614 1-444): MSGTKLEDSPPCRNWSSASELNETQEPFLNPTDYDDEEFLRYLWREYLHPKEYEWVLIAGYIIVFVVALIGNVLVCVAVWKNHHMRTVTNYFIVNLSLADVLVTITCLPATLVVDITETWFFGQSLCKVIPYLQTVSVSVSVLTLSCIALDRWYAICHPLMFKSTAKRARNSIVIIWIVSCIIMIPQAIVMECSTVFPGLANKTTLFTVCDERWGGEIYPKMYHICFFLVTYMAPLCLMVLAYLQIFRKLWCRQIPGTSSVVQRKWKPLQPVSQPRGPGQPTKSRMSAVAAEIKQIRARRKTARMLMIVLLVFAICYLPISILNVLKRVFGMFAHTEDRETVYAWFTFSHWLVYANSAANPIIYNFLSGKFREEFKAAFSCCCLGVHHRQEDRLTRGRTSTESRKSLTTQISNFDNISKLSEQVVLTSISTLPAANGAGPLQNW
Protocol: The agonist or antagonist nature of the compounds is determined in vitro in a test of measurement of intracellular calcium (FLIPR) on a cell preparation expressing the orexin 2 receptors, according to the general technique described in Sullivan et al., Methods Mol. Biol., 1999, vol. 114, 125-133, using 1 μM of Fluo-4 AM as fluorescent calcium indicator.

orexin 2 receptors [2] = molecular target: T2, orexin 2 receptors; test: in vitro binding: displacement of radio-iodinated orexin A on CHO cell membranes; design: expressed in transfected cells; host or cells: CHO cells (membranes); conditions: human orexin 2 receptors in CHO cell membranes, 100 pM ligand, 30 minutes at 25° C., read-out: IC50 OX 2
Protocol: as §1, with “nM.” for “nM. The affinity of the compounds according to the invention for the orexin 1 receptors was also studied in a test of in vitro binding according to the same technique using radio-iodinated orexin A as ligand in a membrane preparation of CHO cells expressing the human orexin 1 receptors. The compounds according to the invention show little or no affinity for the orexin 1 receptors.”

Row | SMILES | IC50 (human orexin 1 receptors) | IC50 (orexin 2 receptors [1]) | IC50 (orexin 2 receptors [2]) | melting point | IC50 (human orexin 1 receptors; unit μM)
1 | CCOC(=O)CN(c1ccc(Cl)cc1C(O)c1ccccc1Cl)S(=O)(=O)c1ccc(OC)c(OC)c1 (centres unmarked) [Compound 1, Ethyl N-{4-chloro-2-[(2-chlorophenyl)(hydroxy)methyl]phenyl}-N-[(3,4-dimethoxyphenyl)sulfonyl]glycinate] | 0.446 µM | 5 nM | 13 nM | – | –
2 | COc1ccc(S(=O)(=O)N(Cc2nnn(C)n2)c2ccc(Cl)cc2C(O)c2ccccc2Cl)cc1OC (centres unmarked) [Compound 14, N-{4-chloro-2-[(2-chlorophenyl)(hydroxy)methyl]phenyl}-3,4-dimethoxy-N-[(2-methyl-2H-tetrazol-5-yl)methyl]benzenesulfonamide] | – | – | – | 94.8 °C | –
3 | COc1cccc(S(=O)(=O)N(CC(N)=O)c2ccc(Cl)cc2C(O)c2ccccc2Cl)c1 (centres unmarked) [Compound 30] | 0.966 µM | 26 nM | 82 nM | – | –
4 | COc1ccc(S(=O)(=O)N(CC(N)=O)c2ccc(Cl)cc2N(C)c2ccccc2)cc1OC [Compound 92, N^2-{4-chloro-2-[methyl(phenyl)amino]phenyl}-N^2-[(3,4-dimethoxyphenyl)sulfonyl]glycinamide] | – | – | – | 192.5 °C | –
5 | CNC(=O)CN(c1ccc(Cl)cc1N(C)c1ccccc1)S(=O)(=O)c1ccc(OC)c(OC)c1 [Compound 124, N^2-{4-chloro-2-[methyl(phenyl)amino]phenyl}-N^2-[(3,4-dimethoxyphenyl)sulfonyl]-N^1-methylglycinamide] | – | 65 nM | 50 nM | – | > 10 µM
6 | COc1ccc(S(=O)(=O)N(CC(N)=O)c2cc(Cl)ccc2Cc2ccccc2Cl)cc1OC [Compound 179, N^2-[5-Chloro-2-(2-chlorobenzyl)phenyl]-N^2-[(3,4-dimethoxyphenyl)sulfonyl]glycinamide] | – | – | – | 86.4 °C | –
7 | COc1ccc(S(=O)(=O)N(CC(N)=O)c2c(OC)cccc2-c2ccccc2)cc1OC [Compound 312, N˜2˜-[(3,4-dimethoxyphenyl)sulfonyl]-N˜2˜-(3-methoxybiphenyl-2-yl)glycinamide] | – | – | – | 86.8 °C | –

Now from value to compound:

Row | IC50 (human orexin 1 receptors) | IC50 (orexin 2 receptors [1]) | IC50 (orexin 2 receptors [2]) | melting point | IC50 (human orexin 1 receptors; unit μM) | SMILES
8 | – | – | – | 158.5 °C | – | COC(=O)CN(c1ccc(Cl)cc1C(O)c1ccccc1Cl)S(=O)(=O)c1ccc(OC)c(OC)c1 (centres unmarked) [Compound 21, Methyl N-{4-chloro-2-[(2-chlorophenyl)(hydroxy)methyl]phenyl}-N-[(3,4-dimethoxyphenyl)sulfonyl]glycinate]
9 | 1.5 µM | 19 nM | 62 nM | – | – | Cc1ccc(S(=O)(=O)N(CC(N)=O)c2ccc(Cl)cc2C(O)c2ccccc2Cl)cc1C (centres unmarked) [Compound 28, N^2-{4-chloro-2-[(2-chlorophenyl)(hydroxy)methyl]phenyl}-N^2-[(3,4-dimethylphenyl)sulfonyl]glycinamide]
10 | – | 54 nM | 85 nM | – | > 10 µM | COc1ccc(S(=O)(=O)N(CC(N)=O)c2ccc(Cl)cc2C(O)c2cccc(Cl)c2)cc1OC (centres unmarked) [Compound 44, N^2-{4-chloro-2-[(3-chlorophenyl)(hydroxy)methyl]phenyl}-N^2-[(3,4-dimethoxyphenyl)sulfonyl]glycinamide]
11 | 0.899 µM | 11 nM | 20 nM | – | – | COc1ccc(S(=O)(=O)N(Cc2nccn2C)c2ccc(Cl)cc2Cc2ccccc2Cl)cc1OC [Compound 107, N-[4-chloro-2-(2-chlorobenzyl)phenyl]-3,4-dimethoxy-N-[(1-methyl-1H-imidazol-2-yl)methyl]benzenesulfonamide]
12 | – | 10 nM | 19 nM | – | > 10 µM | CNC(=O)CN(c1ccc(Cl)cc1C(O)c1ccccc1)S(=O)(=O)c1ccc(OC)c(OC)c1 (centres unmarked) [Compound 137, N^2-{4-chloro-2-[hydroxy(phenyl)methyl]phenyl}-N^2-[(3,4-dimethoxyphenyl)sulfonyl]-N^1-methylglycinamide]
13 | 4.76 µM | 11 nM | 8 nM | 184.6 °C | – | COc1ccc(N(CC(N)=O)S(=O)(=O)c2ccc(OC)c(OC)c2)c(Cc2ccccc2Cl)c1 [Compound 138, N^2-[2-(2-Chlorobenzyl)-4-methoxyphenyl]-N^2-[(3,4-dimethoxyphenyl)sulfonyl]glycinamide]
14 | – | – | – | 180.8 °C | – | COc1ccc(S(=O)(=O)N(Cc2nnnn2C)c2ccc(Cl)cc2Cc2c(F)cccc2F)cc1OC [Compound 152, N-[4-chloro-2-(2,6-difluorobenzyl)phenyl]-3,4-dimethoxy-N-[(1-methyl-1H-tetrazol-5-yl)methyl]benzenesulfonamide]
15 | – | – | – | 151 °C | – | CNC(=O)CN(c1ccc(Cl)cc1C(C)c1ccccc1Cl)S(=O)(=O)c1ccc(OC)c(OC)c1 (centres unmarked) [Compound 187, N^2-{4-chloro-2-[1-(2-chlorophenyl)ethyl]phenyl}-N^2-[(3,4-dimethoxyphenyl)sulfonyl]-N^1-methylglycinamide]
16 | 1.87 µM | 7 nM | 9 nM | – | – | COc1ccc(S(=O)(=O)N(CC(N)=O)c2cc(N(C)C)ccc2Cc2c(F)cccc2F)cc1OC [Compound 202, N^2-[2-(2,6-difluorobenzyl)-5-(dimethylamino)phenyl]-N^2-[(3,4-dimethoxyphenyl)sulfonyl]glycinamide]
